Test results as given in patent publication US20260308145A1, “CDK2 INHIBITORS AND METHODS OF USING SAME” (Shenzhen lonova Life Science Co., Ltd., priority 2023, published 2026).

Experiments:
Assay type in all cases: biochemical
CDK1/cyclinB1 = biological target: T1, CDK1/cyclinB1 (Homo sapiens, UniProt P06493); assay: Cyclin-dependent kinase activity assay (continuous ATP coupling assay), CDK1/cyclinB1; details: CDK1/cyclinB1 10 nM, ATP 200 μM, Histone1 copeptide 100 μM, 15 min preincubation, pH 7.5, 1% DMSO
T1 construct: purchased Carna Biosciences 04-102
In short: (§1)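 PK/LDH-coupled continuous assay, ATP at each kinase's Km, Tris pH 7.5 with 1% DMSO final; enzyme preincubated 15 min with compound (10 μM to 0.05 nM, 1:3), NADH fluorescence decrease (ex 340/em 460) gave velocities. IC50 by 4-variable fit; Ki by quadratic/Morrison fit.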

CDK4/cyclinD3 = biological target: T2, CDK4/cyclinD3 (Homo sapiens, UniProt P11802); assay: Cyclin-dependent kinase activity assay (continuous ATP coupling assay), CDK4/cyclinD3; details: CDK4/cyclinD3 60 nM, ATP 500 μM, Rb copeptide 500 μM, 15 min preincubation, pH 7.5, 1% DMSO
T2 construct: purchased Carna Biosciences 04-105
In short: as §1

CDK2/cyclinE1 = biological target: T3, CDK2/cyclinE1 (Homo sapiens, UniProt P24941); assay: Cyclin-dependent kinase activity assay (continuous ATP coupling assay), CDK2/cyclinE1; details: CDK2/cyclinE1 5 nM, ATP 300 μM, Rb copeptide 100 μM, 15 min preincubation, pH 7.5, 1% DMSO
T3 construct: purchased Carna Biosciences 04-165
In short: as §1

CDK6/cyclinD3 = biological target: T4, CDK6/cyclinD3 (Homo sapiens, UniProt Q00534); assay: Cyclin-dependent kinase activity assay (continuous ATP coupling assay), CDK6/cyclinD3; details: CDK6/cyclinD3 25 nM, ATP 500 μM, Rb copeptide 500 μM, 15 min preincubation, pH 7.5, 1% DMSO
T4 construct: purchased Carna Biosciences 04-107
In short: as §1

T2 sequence (P11802 whole entry): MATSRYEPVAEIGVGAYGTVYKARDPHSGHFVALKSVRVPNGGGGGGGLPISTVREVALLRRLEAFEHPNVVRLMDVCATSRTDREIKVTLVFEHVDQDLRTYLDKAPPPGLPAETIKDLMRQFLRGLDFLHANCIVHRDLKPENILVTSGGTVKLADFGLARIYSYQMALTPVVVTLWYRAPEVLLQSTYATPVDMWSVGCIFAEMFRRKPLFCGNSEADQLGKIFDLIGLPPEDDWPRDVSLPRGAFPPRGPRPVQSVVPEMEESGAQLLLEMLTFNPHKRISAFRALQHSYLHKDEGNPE
T2 sequence (P30281 whole entry partner): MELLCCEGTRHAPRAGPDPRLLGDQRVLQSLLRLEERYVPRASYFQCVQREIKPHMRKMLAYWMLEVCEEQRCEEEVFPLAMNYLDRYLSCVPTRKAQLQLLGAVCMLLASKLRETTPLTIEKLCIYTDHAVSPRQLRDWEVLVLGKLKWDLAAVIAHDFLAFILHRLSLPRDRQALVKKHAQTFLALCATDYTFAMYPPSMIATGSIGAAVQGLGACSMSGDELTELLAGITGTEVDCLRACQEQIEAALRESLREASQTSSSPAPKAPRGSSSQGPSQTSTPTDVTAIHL
T4 sequence (Q00534 whole entry): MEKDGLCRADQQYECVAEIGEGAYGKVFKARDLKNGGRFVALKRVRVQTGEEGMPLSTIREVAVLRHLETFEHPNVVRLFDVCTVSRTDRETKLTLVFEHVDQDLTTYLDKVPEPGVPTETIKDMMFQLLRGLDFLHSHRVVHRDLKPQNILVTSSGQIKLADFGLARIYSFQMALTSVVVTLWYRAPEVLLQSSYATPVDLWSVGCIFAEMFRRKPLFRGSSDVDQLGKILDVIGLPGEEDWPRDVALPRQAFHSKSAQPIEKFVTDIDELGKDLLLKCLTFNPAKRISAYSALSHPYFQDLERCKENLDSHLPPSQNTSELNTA
T4 sequence (P30281 whole entry partner): as the sequence (P30281 whole entry partner) above
T1 sequence (P06493 whole entry): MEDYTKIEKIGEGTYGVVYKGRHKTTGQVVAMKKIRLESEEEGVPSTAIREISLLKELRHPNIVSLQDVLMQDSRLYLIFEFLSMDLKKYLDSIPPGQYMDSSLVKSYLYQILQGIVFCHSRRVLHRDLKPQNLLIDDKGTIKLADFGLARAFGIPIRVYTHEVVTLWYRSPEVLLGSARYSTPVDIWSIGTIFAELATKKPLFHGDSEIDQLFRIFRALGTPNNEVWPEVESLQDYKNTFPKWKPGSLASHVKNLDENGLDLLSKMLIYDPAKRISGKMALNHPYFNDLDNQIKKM
T1 sequence (P14635 whole entry partner): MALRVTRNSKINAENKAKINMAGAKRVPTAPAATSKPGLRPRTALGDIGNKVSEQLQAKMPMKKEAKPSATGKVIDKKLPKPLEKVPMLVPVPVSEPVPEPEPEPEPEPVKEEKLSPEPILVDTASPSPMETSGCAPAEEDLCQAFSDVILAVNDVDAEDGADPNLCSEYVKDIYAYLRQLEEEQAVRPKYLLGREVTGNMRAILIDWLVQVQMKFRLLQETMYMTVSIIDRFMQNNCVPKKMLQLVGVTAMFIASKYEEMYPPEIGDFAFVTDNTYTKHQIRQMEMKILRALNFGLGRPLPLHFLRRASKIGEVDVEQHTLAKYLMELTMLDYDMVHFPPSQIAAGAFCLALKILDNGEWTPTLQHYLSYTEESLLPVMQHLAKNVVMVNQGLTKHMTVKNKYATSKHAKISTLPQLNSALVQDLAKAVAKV

Row | SMILES | IC50 (CDK1/cyclinB1) [nM] | IC50 (CDK4/cyclinD3) [nM] | IC50 (CDK2/cyclinE1) [nM] | IC50 (CDK6/cyclinD3) [nM]
1 | CNS(=O)(=O)c1ccc(Nc2ncc(C(F)(F)F)c(-n3cc([C@H]4CC[C@H](O)C4)cn3)n2)cc1 (single isomer, unassigned) [Example 79] | 10 to 100 | 10 to 100 | ≤ 10 | 10 to 100
2 | CNS(=O)(=O)c1ccc(Nc2ncc(C(F)(F)F)c(-n3cc(C4CCC4)cn3)n2)cc1 [Example 101] | ≥ 100 | ≥ 100 | 10 to 100 | ≥ 100
3 | CNS(=O)(=O)c1ccc(Nc2ncc(C(F)(F)F)c(-n3ncc(CC(C)(C)O)c3C)n2)cc1 [Example 69] | ≥ 100 | ≥ 100 | 10 to 100 | ≥ 100
4 | O=S(=O)(NCCO)c1ccc(Nc2ncc(C(F)F)c(-n3cccn3)n2)cc1 [Example 116, 4-((5-(difluoromethyl)-4-(1H-pyrazol-1-yl)pyrimidin-2-yl)amino)-N-(2-hydroxyethyl)benzenesulfonamide] | ≥ 100 | ≥ 100 | 10 to 100 | ≥ 100
5 | Cc1cc(S(=O)(=O)NCCO)ccc1Nc1ncc(C(F)(F)F)c(-n2cccn2)n1 [Example 126] | ≥ 100 | ≥ 100 | ≤ 10 | ≥ 100
6 | CNS(=O)(=O)c1ccc(Nc2ncc(C(F)(F)F)c(-n3ccc(C4CC4)n3)n2)cc1 [Example 56] | ≥ 100 | ≥ 100 | ≥ 100 | ≥ 100
7 | CC(CO)NS(=O)(=O)c1ccc(Nc2ncc(C(F)(F)F)c(-n3cccn3)n2)cc1 (stereo not shown) [Example 133] | 10 to 100 | ≥ 100 | ≤ 10 | ≥ 100
8 | CC(C)(O)Cc1cnn(-c2nc(NC3CCN(S(C)(=O)=O)CC3)ncc2C(F)(F)F)c1 [Example 7] | 10 to 100 | 10 to 100 | ≤ 10 | 10 to 100
9 | CNS(=O)(=O)c1ccc(Nc2ncc(C(F)(F)F)c(-n3cc(C(C)(C)CO)cn3)n2)cc1 [Example 59] | 10 to 100 | 10 to 100 | ≤ 10 | 10 to 100
10 | CNS(=O)(=O)c1ccc(Nc2ncc(C(F)(F)F)c(-n3cc(C4CCN(C(C)C)CC4)cn3)n2)cc1 [Example 82] | 10 to 100 | 10 to 100 | ≤ 10 | ≥ 100
11 | CNS(=O)(=O)c1ccc(Nc2ncc(C(F)F)c(-n3cc(CC(C)(C)O)cn3)n2)cc1 [Example 66] | ≥ 100 | 10 to 100 | 10 to 100 | 10 to 100
12 | CNS(=O)(=O)c1ccc(Nc2ncc(C(F)(F)F)c(-n3cc(N4CCCC4)cn3)n2)cc1 [Example 87, N-methyl-4-[[4-(4-pyrrolidin-1-ylpyrazol-1-yl)-5-(trifluoromethyl)pyrimidin-2-yl]amino]benzene sulfonamide] | ≥ 100 | ≥ 100 | 10 to 100 | ≥ 100
13 | CNS(=O)(=O)c1ccc(Nc2ncc(C(F)(F)F)c(-n3cc(CC(C)(C)N)cn3)n2)cc1 [Example 72, 4-[[4-[4-(2-amino-2-methyl-propyl)pyrazol-1-yl]-5-(trifluoromethyl)pyrimidin-2-yl]amino]-N-methyl-benzene sulfonamide] | 10 to 100 | 10 to 100 | ≤ 10 | ≥ 100
14 | CNS(=O)(=O)c1ccc(Nc2ncc(C(F)(F)F)c(-n3cc(Br)cn3)n2)cc1 [Example 44] | ≥ 100 | ≥ 100 | 10 to 100 | ≥ 100
15 | CNS(=O)(=O)c1ccc(Nc2ncc(C(F)(F)F)c(-n3cc(C(C)(C)C#N)cn3)n2)cc1 [Example 49, 4-[[4-[4-(1-cyano-1-methyl-ethyl)pyrazol-1-yl]-5-(trifluoromethyl)pyrimidin-2-yl]amino]-N-methyl-benzene sulfonamide] | 10 to 100 | 10 to 100 | 10 to 100 | 10 to 100
16 | CNS(=O)(=O)c1ccc(Nc2ncc(C(F)(F)F)c(-n3cc(C)cn3)n2)cc1 [Example 46] | ≥ 100 | 10 to 100 | ≤ 10 | ≥ 100
17 | CNS(=O)(=O)c1ccc(Nc2ncc(C(F)(F)F)c(-n3cc([C@H]4CCC[C@H]4O)cn3)n2)cc1 (single isomer, unassigned) [Example 77] | 10 to 100 | 10 to 100 | 10 to 100 | ≥ 100
18 | O=S(=O)(NCCO)c1ccc(Nc2ncc(C(F)(F)F)c(-n3cccn3)n2)c(F)c1 [Example 124] | ≥ 100 | ≥ 100 | ≤ 10 | ≥ 100
19 | CNS(=O)(=O)c1ccc(Nc2ncc(C(F)(F)F)c(-n3cc(N4CC(O)C4)cn3)n2)cc1 [Example 100] | 10 to 100 | ≥ 100 | ≤ 10 | ≥ 100
